Measured values as given in BigSolDB 2.1.

COC(=O)c1nc[nH]n1
Conditions	solubility (mole fraction)
in 2-pentanone, 278.15 K	0.000862
in 2-pentanone, 283.35 K	0.000994
in 2-pentanone, 288.05 K	0.0012
in 2-pentanone, 292.55 K	0.00136
in 2-pentanone, 297.95 K	0.00165
in 2-pentanone, 302.65 K	0.00192
in 2-pentanone, 307.35 K	0.00222
in 2-pentanone, 313.05 K	0.00253
in 2-pentanone, 317.35 K	0.00285
in 3-pentanone, 278.25 K	0.000784
in 3-pentanone, 283.35 K	0.000902
in 3-pentanone, 288.05 K	0.00107
in 3-pentanone, 292.55 K	0.00127
in 3-pentanone, 298.35 K	0.00143
in 3-pentanone, 303.05 K	0.00172
in 3-pentanone, 307.35 K	0.00191
in 3-pentanone, 312.85 K	0.00224
in 3-pentanone, 317.15 K	0.00243
in MIBK, 278.25 K	0.000526
in MIBK, 283.35 K	0.000657
in MIBK, 288.05 K	0.000734
in MIBK, 292.55 K	0.000852
in MIBK, 298.35 K	0.00111
in MIBK, 303.05 K	0.00127
in MIBK, 307.35 K	0.00148
in MIBK, 312.55 K	0.00172
in MIBK, 317.05 K	0.00197
in THF, 278.15 K	0.00105
in THF, 283.05 K	0.00137
in THF, 289.05 K	0.00196
in THF, 293.25 K	0.00244
in THF, 298.35 K	0.00323
in THF, 303.05 K	0.00419
in THF, 307.35 K	0.00517
in THF, 313.85 K	0.00714
in THF, 317.95 K	0.00875
in acetone, 278.15 K	0.00153
in acetone, 283.35 K	0.00181
in acetone, 288.05 K	0.00203
in acetone, 292.55 K	0.00232
in acetone, 297.95 K	0.00286
in acetone, 302.65 K	0.0033
in acetone, 307.35 K	0.00382
in acetone, 313.25 K	0.00458
in acetone, 317.55 K	0.00508
in acetonitrile, 278.65 K	0.000843
in acetonitrile, 283.45 K	0.000993
in acetonitrile, 288.25 K	0.0012
in acetonitrile, 292.85 K	0.00142
in acetonitrile, 297.05 K	0.00168
in acetonitrile, 301.85 K	0.00206
in acetonitrile, 307.35 K	0.00245
in acetonitrile, 313.25 K	0.00305
in acetonitrile, 318.95 K	0.00384
in cyclohexanone, 278.05 K	0.00557
in cyclohexanone, 282.95 K	0.00583
in cyclohexanone, 289.05 K	0.00622
in cyclohexanone, 293.25 K	0.00657
in cyclohexanone, 298.35 K	0.00687
in cyclohexanone, 303.05 K	0.0075
in cyclohexanone, 307.35 K	0.00814
in cyclohexanone, 313.75 K	0.00888
in cyclohexanone, 317.85 K	0.00962
in cyclopentanone, 277.95 K	0.00156
in cyclopentanone, 282.85 K	0.0018
in cyclopentanone, 288.95 K	0.00219
in cyclopentanone, 293.25 K	0.00251
in cyclopentanone, 298.25 K	0.00303
in cyclopentanone, 303.05 K	0.00356
in cyclopentanone, 307.25 K	0.00417
in cyclopentanone, 313.65 K	0.0053
in cyclopentanone, 317.65 K	0.00632
in ethanol, 278.45 K	0.00142
in ethanol, 283.15 K	0.0016
in ethanol, 288.05 K	0.00204
in ethanol, 292.65 K	0.00254
in ethanol, 297.25 K	0.00305
in ethanol, 301.65 K	0.00378
in ethanol, 306.95 K	0.00464
in ethanol, 312.65 K	0.00602
in ethanol, 318.05 K	0.00759
in isobutanol, 278.65 K	0.00103
in isobutanol, 283.35 K	0.00116
in isobutanol, 288.25 K	0.00141
in isobutanol, 292.85 K	0.00182
in isobutanol, 297.05 K	0.00222
in isobutanol, 301.85 K	0.00273
in isobutanol, 307.15 K	0.00337
in isobutanol, 313.15 K	0.00439
in isobutanol, 318.65 K	0.00581
in isopropanol, 278.55 K	0.000966
in isopropanol, 283.25 K	0.00119
in isopropanol, 288.15 K	0.00146
in isopropanol, 292.75 K	0.00188
in isopropanol, 297.15 K	0.00235
in isopropanol, 301.75 K	0.00297
in isopropanol, 307.05 K	0.00389
in isopropanol, 312.85 K	0.00511
in isopropanol, 318.35 K	0.00693
in methanol, 278.45 K	0.00294
in methanol, 283.15 K	0.0033
in methanol, 288.05 K	0.00385
in methanol, 292.65 K	0.00467
in methanol, 297.25 K	0.00537
in methanol, 301.65 K	0.00645
in methanol, 306.95 K	0.00768
in methanol, 312.55 K	0.00952
in methanol, 317.85 K	0.0115
in n-butanol, 278.55 K	0.00199
in n-butanol, 283.35 K	0.00217
in n-butanol, 288.15 K	0.00246
in n-butanol, 292.75 K	0.00279
in n-butanol, 297.15 K	0.00326
in n-butanol, 301.75 K	0.00378
in n-butanol, 307.15 K	0.00476
in n-butanol, 312.95 K	0.00613
in n-butanol, 318.45 K	0.00818
in n-propanol, 278.55 K	0.00137
in n-propanol, 283.25 K	0.00153
in n-propanol, 288.15 K	0.00183
in n-propanol, 292.75 K	0.00227
in n-propanol, 297.15 K	0.00264
in n-propanol, 301.75 K	0.00325
in n-propanol, 307.05 K	0.00398
in n-propanol, 312.75 K	0.00532
in n-propanol, 318.15 K	0.0069
